Positions of bridges follow the written chain, without caps; N, C: chain ends. Residues, ends and D or L forms follow the SMILES beside them.

Holding throughout (experiment): cell-based
The target in assay [1] is hNav1.7 (Homo sapiens, UniProt Q15858). The assay is classed as cell-based. The settings on record: IonWorks Quattro, use-dependent block, hNav1.7; read-out: IWQ Use Nav1.7.
For assay [2], the target named is hNav1.3 (Homo sapiens, UniProt Q9NY46). To be noted: IonWorks Quattro, use-dependent block, hNav1.3; read-out: IWQ Use Nav1.3. Background: In patch-clamp work, channel activity is measured electrically.
Sequence of hNav1.3 (Q9NY46 whole entry, looked up): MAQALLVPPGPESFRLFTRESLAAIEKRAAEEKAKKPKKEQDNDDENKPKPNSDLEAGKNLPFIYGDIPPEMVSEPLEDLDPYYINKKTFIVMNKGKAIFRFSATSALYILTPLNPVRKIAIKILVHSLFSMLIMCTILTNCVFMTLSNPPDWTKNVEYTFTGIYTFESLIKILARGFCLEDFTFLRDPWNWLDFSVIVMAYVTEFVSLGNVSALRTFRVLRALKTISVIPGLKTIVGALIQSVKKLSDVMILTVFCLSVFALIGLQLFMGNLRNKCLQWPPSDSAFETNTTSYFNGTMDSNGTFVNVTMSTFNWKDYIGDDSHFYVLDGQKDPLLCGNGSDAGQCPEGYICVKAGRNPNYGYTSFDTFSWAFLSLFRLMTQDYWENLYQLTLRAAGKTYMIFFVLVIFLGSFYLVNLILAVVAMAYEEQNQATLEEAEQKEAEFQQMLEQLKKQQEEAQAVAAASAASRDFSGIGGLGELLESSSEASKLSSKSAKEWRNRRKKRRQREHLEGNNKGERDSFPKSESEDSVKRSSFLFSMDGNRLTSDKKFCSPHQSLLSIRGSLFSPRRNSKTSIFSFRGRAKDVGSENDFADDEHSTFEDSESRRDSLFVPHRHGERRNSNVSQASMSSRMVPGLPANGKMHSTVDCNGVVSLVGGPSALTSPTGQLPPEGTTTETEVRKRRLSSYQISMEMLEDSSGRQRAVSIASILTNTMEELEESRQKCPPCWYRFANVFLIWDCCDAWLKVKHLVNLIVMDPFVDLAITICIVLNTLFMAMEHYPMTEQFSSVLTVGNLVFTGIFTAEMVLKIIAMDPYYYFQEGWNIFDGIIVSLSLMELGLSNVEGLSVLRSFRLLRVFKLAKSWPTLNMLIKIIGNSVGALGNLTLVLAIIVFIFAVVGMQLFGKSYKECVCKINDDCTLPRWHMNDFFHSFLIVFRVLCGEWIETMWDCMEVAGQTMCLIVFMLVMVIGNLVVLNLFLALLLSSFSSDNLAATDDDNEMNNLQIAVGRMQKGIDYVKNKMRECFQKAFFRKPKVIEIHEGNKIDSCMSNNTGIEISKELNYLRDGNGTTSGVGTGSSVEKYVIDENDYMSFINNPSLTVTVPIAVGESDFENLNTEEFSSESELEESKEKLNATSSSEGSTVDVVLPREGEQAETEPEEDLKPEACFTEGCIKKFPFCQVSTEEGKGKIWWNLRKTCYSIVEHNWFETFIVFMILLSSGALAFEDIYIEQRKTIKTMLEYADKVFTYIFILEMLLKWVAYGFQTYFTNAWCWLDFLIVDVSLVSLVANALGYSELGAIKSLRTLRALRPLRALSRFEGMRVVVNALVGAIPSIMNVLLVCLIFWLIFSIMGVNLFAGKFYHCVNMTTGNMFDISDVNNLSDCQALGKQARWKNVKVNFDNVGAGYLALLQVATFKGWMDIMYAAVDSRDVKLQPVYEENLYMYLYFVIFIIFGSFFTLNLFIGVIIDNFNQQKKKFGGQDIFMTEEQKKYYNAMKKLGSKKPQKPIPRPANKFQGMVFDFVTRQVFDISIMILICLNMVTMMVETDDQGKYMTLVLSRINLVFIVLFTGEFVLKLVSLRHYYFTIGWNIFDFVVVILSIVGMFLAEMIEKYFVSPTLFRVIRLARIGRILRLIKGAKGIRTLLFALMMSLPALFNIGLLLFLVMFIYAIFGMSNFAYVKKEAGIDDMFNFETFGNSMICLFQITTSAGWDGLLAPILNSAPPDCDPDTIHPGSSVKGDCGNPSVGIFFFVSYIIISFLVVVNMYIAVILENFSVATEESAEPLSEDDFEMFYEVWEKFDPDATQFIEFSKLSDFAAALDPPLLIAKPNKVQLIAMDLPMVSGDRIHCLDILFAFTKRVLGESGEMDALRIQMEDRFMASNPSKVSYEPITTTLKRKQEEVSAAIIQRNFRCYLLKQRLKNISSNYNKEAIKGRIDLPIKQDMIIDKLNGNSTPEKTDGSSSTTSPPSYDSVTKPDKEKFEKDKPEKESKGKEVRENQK
In assay [3] the target is hNav1.5 (Homo sapiens, UniProt Q14524). The settings on record: IonWorks Quattro, use-dependent block, hNav1.5; read-out: IWQ Use Nav1.5.

Sequence of hNav1.7 (Q15858 whole entry, looked up): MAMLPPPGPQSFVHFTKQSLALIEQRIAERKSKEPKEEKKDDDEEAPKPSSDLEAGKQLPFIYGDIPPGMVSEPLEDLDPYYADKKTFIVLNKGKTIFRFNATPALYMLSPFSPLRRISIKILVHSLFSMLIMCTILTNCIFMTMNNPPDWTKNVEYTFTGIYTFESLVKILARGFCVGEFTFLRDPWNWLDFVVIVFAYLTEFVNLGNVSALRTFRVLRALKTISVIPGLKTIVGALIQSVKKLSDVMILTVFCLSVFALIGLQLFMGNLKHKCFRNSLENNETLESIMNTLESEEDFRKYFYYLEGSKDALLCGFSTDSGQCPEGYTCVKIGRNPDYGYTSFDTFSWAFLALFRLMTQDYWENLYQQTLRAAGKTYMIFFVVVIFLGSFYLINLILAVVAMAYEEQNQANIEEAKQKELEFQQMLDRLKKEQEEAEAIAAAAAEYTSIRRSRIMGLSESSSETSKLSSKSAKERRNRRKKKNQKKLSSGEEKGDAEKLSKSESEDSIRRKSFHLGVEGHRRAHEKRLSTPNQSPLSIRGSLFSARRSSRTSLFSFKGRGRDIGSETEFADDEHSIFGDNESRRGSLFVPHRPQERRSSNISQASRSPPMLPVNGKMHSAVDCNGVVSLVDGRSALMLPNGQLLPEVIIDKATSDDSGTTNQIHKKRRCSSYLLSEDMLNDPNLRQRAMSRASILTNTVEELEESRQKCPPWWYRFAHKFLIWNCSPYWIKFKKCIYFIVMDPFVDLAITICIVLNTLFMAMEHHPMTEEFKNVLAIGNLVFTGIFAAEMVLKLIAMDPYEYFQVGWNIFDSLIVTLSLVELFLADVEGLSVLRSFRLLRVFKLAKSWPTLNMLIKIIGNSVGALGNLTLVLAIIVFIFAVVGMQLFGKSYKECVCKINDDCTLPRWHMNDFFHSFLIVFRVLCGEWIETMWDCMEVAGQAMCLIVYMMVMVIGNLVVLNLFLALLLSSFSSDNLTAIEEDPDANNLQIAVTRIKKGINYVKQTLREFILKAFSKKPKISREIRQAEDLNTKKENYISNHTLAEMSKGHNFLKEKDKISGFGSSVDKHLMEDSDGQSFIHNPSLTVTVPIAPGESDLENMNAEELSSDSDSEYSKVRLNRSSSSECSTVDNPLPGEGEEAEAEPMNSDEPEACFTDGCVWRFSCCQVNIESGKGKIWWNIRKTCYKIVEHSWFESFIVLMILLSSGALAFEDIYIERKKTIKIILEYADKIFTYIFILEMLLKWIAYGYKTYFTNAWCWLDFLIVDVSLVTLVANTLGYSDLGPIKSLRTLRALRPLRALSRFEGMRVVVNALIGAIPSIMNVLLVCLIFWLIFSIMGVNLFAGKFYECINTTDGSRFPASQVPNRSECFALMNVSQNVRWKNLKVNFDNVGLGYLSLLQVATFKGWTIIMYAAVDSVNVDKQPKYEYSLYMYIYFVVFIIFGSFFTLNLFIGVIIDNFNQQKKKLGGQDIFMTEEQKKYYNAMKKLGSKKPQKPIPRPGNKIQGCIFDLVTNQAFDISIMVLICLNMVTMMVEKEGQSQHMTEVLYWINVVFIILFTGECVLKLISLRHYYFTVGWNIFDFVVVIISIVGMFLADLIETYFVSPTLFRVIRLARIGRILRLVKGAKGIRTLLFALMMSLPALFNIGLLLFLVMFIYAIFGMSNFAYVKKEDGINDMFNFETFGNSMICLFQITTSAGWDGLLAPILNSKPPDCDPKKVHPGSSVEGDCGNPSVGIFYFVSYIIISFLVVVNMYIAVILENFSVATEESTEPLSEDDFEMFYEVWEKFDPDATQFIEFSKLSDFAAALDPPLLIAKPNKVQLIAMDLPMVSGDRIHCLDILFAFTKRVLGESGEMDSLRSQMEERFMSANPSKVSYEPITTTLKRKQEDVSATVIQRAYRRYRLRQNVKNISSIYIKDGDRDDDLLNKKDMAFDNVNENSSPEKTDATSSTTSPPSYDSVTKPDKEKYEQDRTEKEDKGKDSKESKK

Take `CC[C@H](C)[C@@H]1NC(=O)[C@@H]2CSSC[C@@H]3NC(=O)[C@H](C(C)C)NC(=O)[C@H](CC(C)C)NC(=O)[C@H](CC(N)=O)NC(=O)[C@@H]4CCCN4C(=O)[C@H](CCCNC(=N)N)NC(=O)[C@H](CSSC[C@H](NC(=O)[C@@H](N)CC(=O)O)C(=O)N[C@@H](CC(C)C)C(=O)NCC(=O)N[C@@H](Cc4ccccc4)C(=O)N[C@@H](CCSC)C(=O)N[C@@H](CCCNC(=N)N)C(=O)N[C@@H](CCCNC(=N)N)C(=O)N2)NC(=O)[C@H](CSSC[C@@H](C(=O)N[C@@H](CCCCN)C(=O)N[C@@H](Cc2ccc(O)cc2)C(=O)N[C@H](C(=O)N[C@@H](Cc2ccccc2)C(N)=O)C(C)C)NC(=O)[C@H](Cc2c[nH]c4ccccc24)NC(=O)[C@H](CCCCN)NC(=O)[C@H](Cc2cnc[nH]2)NC(=O)[C@H]([C@@H](C)O)NC(=O)[C@H](CCCNC(=N)N)NC(=O)[C@H](CO)NC3=O)NC(=O)[C@H](CCCCN)NC(=O)[C@H](CC(=O)O)NC(=O)[C@H](CC(N)=O)NC(=O)[C@H](CC(=O)O)NC(=O)[C@@H]2CCCN2C1=O` [[Arg8]GpTx-1(1-34)] (H-DCLGFMRRCIPDNDKCCRPNLVCSRTHKWCKYVF-NH2; disulfide 2-17, 9-23, 16-30): the IC50 in assay [1] was 0.14 µM; in assay [2] it was 0.12 µM; in assay [3] it was 13.8 µM.
For `CC[C@H](C)[C@@H]1NC(=O)[C@@H]2CSSC[C@@H]3NC(=O)[C@H](C(C)C)NC(=O)[C@H](CC(C)C)NC(=O)[C@H](CC(N)=O)NC(=O)[C@@H]4CCCN4C(=O)[C@H](CCCNC(=N)N)NC(=O)[C@H](CSSC[C@H](NC(=O)[C@@H](N)CC(=O)O)C(=O)N[C@@H](CC(C)C)C(=O)NCC(=O)N[C@@H](Cc4ccccc4)C(=O)N[C@@H](CCSC)C(=O)N[C@@H](CCCNC(N)=O)C(=O)N[C@@H](CCCCN)C(=O)N2)NC(=O)[C@H](CSSC[C@@H](C(=O)N[C@@H](CCCCN)C(=O)N[C@@H](Cc2ccc(O)cc2)C(=O)N[C@H](C(=O)N[C@@H](Cc2ccccc2)C(N)=O)C(C)C)NC(=O)[C@H](Cc2c[nH]c4ccccc24)NC(=O)[C@H](CCCCN)NC(=O)[C@H](Cc2c[nH]cn2)NC(=O)[C@H]([C@@H](C)O)NC(=O)[C@H](CCCNC(=N)N)NC(=O)[C@H](CO)NC3=O)NC(=O)[C@H](CCCCN)NC(=O)[C@H](CC(=O)O)NC(=O)[C@H](CC(N)=O)NC(=O)[C@H](CC(=O)O)NC(=O)[C@@H]2CCCN2C1=O` [[Cit7]GpTx-1(1-34)], in that order: 0.63 µM, 0.56 µM and 14.4 µM.
For `CC[C@H](C)[C@@H]1NC(=O)[C@@H]2CSSC[C@@H]3NC(=O)[C@H](C(C)C)NC(=O)[C@H](CC(C)C)NC(=O)[C@H](CC(N)=O)NC(=O)[C@@H]4CCCN4C(=O)[C@H](CCCNC(=N)N)NC(=O)[C@H](CSSC[C@H](NC(=O)[C@@H](N)CC(=O)O)C(=O)N[C@@H](CC(C)C)C(=O)NCC(=O)N[C@@H](Cc4ccccc4)C(=O)N[C@@H](CCSC)C(=O)N[C@@H](CCCCN)C(=O)N[C@@H](CCCCN)C(=O)N2)NC(=O)[C@H](CSSC[C@@H](C(=O)N[C@@H](CCCCN)C(=O)N[C@@H](Cc2ccc(O)cc2)C(=O)N[C@H](C(=O)N[C@@H](Cc2ccccc2)C(N)=O)C(C)C)NC(=O)[C@H](Cc2c[nH]c4ccccc24)NC(=O)[C@H](CCCCN)NC(=O)[C@H](Cc2c[nH]cn2)NC(=O)[C@H]([C@@H](C)O)NC(=O)[C@H](CCCNC(=N)N)NC(=O)[C@H](CO)NC3=O)NC(=O)[C@H](CCCCN)NC(=O)[C@H](CC(=O)O)NC(=O)[C@H](CC(N)=O)NC(=O)[C@H](CC(=O)O)NC(=O)[C@@H]2CCCN2C1=O` [[Lys7]GpTx-1(1-34)] (H-DCLGFMKKCIPDNDKCCRPNLVCSRTHKWCKYVF-NH2; disulfide 2-17, 9-23, 16-30), the values for the IC50 in assay [1], in assay [2] and in assay [3] were 0.53 µM, 0.47 µM and 23.3 µM, respectively.

The record behind these values is US9340590B2 (priority 2011, dated 2016).
